Test results from the supplement of paper PMC13380429.
Where a name gives a salt, the structure may show the parent alone.

Columns and labels:
Settings in all cases: 72 h
[1] = test system: Caco-2; test: cell viability relative to DMSO; higher = less toxic
[2] = test system: Calu-3; test: as above
[3] = test system: HepG2; test: as above
[4] = test system: U2OS; test: as above
[5] = test system: Vero E6; test: as above
[6] = test system: Caco-2; test: relative viability EC50 (midpoint between 100% and the lowest measured viability); higher = less toxic
[7] = test system: Calu-3; test: as above
[8] = test system: HepG2; test: as above
[9] = test system: U2OS; test: as above
[10] = test system: Vero E6; test: as above
[11] = test system: Caco-2; test: drug sensitivity score (DSS) for viability; higher = more toxic; extreme values may be limits of the assay
[12] = test system: Calu-3; test: as above
[13] = test system: HepG2; test: as above
[14] = test system: U2OS; test: as above
[15] = test system: Vero E6; test: as above

Structure (SMILES) | cell viability ([1]; 1 nM) | cell viability ([1]; 10 nM) | cell viability ([1]; 100 nM) | cell viability ([1]; 1000 nM) | cell viability ([1]; 10000 nM) | cell viability ([2]; 1 nM) | cell viability ([2]; 10 nM) | cell viability ([2]; 100 nM) | cell viability ([2]; 1000 nM) | cell viability ([2]; 10000 nM) | cell viability ([3]; 1 nM) | cell viability ([3]; 10 nM) | cell viability ([3]; 100 nM) | cell viability ([3]; 1000 nM) | cell viability ([3]; 10000 nM) | cell viability ([4]; 1 nM) | cell viability ([4]; 10 nM) | cell viability ([4]; 100 nM) | cell viability ([4]; 1000 nM) | cell viability ([4]; 10000 nM) | cell viability ([5]; 1 nM) | cell viability ([5]; 10 nM) | cell viability ([5]; 100 nM) | cell viability ([5]; 1000 nM) | cell viability ([5]; 10000 nM) | relative viability EC50 [6] | relative viability EC50 [7] | relative viability EC50 [8] | relative viability EC50 [9] | relative viability EC50 [10] | drug sensitivity score [11] | drug sensitivity score [12] | drug sensitivity score [13] | drug sensitivity score [14] | drug sensitivity score [15]
Oc1ccc(C2(c3ccccc3F)CCC(F)(F)CC2)cc1 [AC-186] | 104% | 95% | 98.2% | 96.2% | 102% | 91% | 98.4% | 89.3% | 105% | 104% | 95.8% | 94.7% | 100% | 96.3% | 104% | 95.1% | 96.3% | 95.5% | 99.3% | 99% | 97.4% | 96.5% | 94.2% | 92.2% | 109% | > 10 µM | > 10 µM | > 10 µM | > 10 µM | > 10 µM | 0 | 0 | 0 | 0 | 0
CN(C)[C@@H]1CCc2[nH]c3ccc(NC(=O)c4ccc(F)cc4)cc3c2C1 | 96% | 103% | 93.5% | 99.3% | 86.6% | 105% | 93.2% | 105% | 110% | 84.2% | 101% | 99.3% | 95.8% | 89.3% | 94.6% | 97.1% | 104% | 91.9% | 101% | 96.1% | 106% | 98.9% | 100% | 96.1% | 97.2% | > 10 µM | > 10 µM | > 10 µM | > 10 µM | > 10 µM | 0.2 | 0.1 | 0.1 | 0 | 0
C=CCN1CC[C@]23c4c5ccc(O)c4O[C@H]2C(=O)CC[C@@]3(O)[C@H]1C5 [NALOXONE HYDROCHLORIDE] | 98% | 94.7% | 101% | 100% | 104% | 94.5% | 94.4% | 88.5% | 91% | 99.6% | 106% | 97.9% | 102% | 95.9% | 103% | 103% | 99.7% | 102% | 103% | 100% | 99% | 103% | 104% | 95.9% | 100% | > 10 µM | > 10 µM | > 10 µM | > 10 µM | > 10 µM | 0 | 0 | 0 | 0 | 0
C[C@]12CCC(=O)C=C1CC[C@@H]1[C@@H]2CC[C@@]2(C)[C@H]1CC[C@]2(C)O [17-alpha-Methyltestosterone] | 99.2% | 89.5% | 90.4% | 98.8% | 102% | 108% | 97.1% | 114% | 106% | 115% | 103% | 90.8% | 91.5% | 96.8% | 101% | 97.6% | 96.1% | 104% | 101% | 97.1% | 92.6% | 97.4% | 94.4% | 91.9% | 105% | > 10 µM | > 10 µM | > 10 µM | > 10 µM | > 10 µM | 0 | 0 | 0 | 0 | 0
Clc1ccc(C(c2ccccc2Cl)C(Cl)Cl)cc1 (stereo not given) [mitotane] | 100% | 90.7% | 97.9% | 99.4% | 91.9% | 92.8% | 102% | 89.1% | 97.1% | 99.6% | 89.9% | 89.9% | 87.9% | 85.4% | 94.6% | 98.5% | 93.2% | 98.6% | 97.7% | 97.7% | 106% | 96.6% | 101% | 101% | 97.6% | > 10 µM | > 10 µM | > 10 µM | > 10 µM | > 10 µM | 0 | 0 | 0 | 0 | 0
CCC1=C[C@@H]2CN(C1)Cc1c([nH]c3ccccc13)[C@@](C(=O)OC)(c1cc3c(cc1OC)N(C)[C@H]1[C@@](O)(C(=O)OC)[C@H](OC(C)=O)[C@]4(CC)C=CCN5CC[C@]31[C@@H]54)C2 [vinorelbine] | 98.1% | 94.7% | 58.7% | 53% | 45.1% | 97.5% | 100% | 72.2% | 51.1% | 40.5% | 103% | 92.8% | 58.6% | 32.7% | 39% | 95.8% | 97% | 77.5% | 32.4% | 22.7% | 104% | 101% | 99.5% | 54% | 31.2% | 0.0465 µM | 0.137 µM | 0.0659 µM | 0.205 µM | 0.754 µM | 15.3 | 12.6 | 17.5 | 15.2 | 9.2
CCCC(O)C(CC)CO (stereo not given) [2-ethyl-1,3-hexanediol] | 106% | 88.9% | 101% | 93.9% | 93.3% | 105% | 101% | 102% | 94.6% | 103% | 78.7% | 105% | 98.8% | 81.1% | 101% | 102% | 99.1% | 95.9% | 97.8% | 102% | 95.5% | 102% | 101% | 104% | 75.5% | > 10 µM | > 10 µM | > 10 µM | > 10 µM | > 10 µM | 0 | 0 | 0 | 0 | 0.7
Cn1c(=O)c2c(ncn2CC(O)CO)n(C)c1=O (stereo not given) [dyphylline] | 104% | 110% | 104% | 98.9% | 107% | 92.7% | 99.6% | 109% | 96.4% | 101% | 102% | 106% | 97.1% | 107% | 104% | 107% | 108% | 105% | 98.8% | 110% | 100% | 102% | 105% | 98.7% | 105% | > 10 µM | > 10 µM | > 10 µM | > 10 µM | > 10 µM | 0 | 0 | 0 | 0 | 0
CCC(=O)NS(=O)(=O)c1ccc(-c2c(-c3ccccc3)noc2C)cc1 [parecoxib] | 99.5% | 96% | 96.6% | 98.9% | 95.7% | 106% | 94.3% | 94.4% | 92.5% | 108% | 88.9% | 90% | 94% | 94.2% | 90.1% | 103% | 113% | 103% | 94.1% | 99.2% | 97.7% | 101% | 95.6% | 95.6% | 93.6% | > 10 µM | > 10 µM | > 10 µM | > 10 µM | > 10 µM | 0 | 0 | 0 | 0 | 0
C/C=C/C=C/C(=O)O [sorbic-acid] | 103% | 93.3% | 106% | 99% | 114% | 106% | 99.8% | 84.4% | 91.3% | 110% | 87.3% | 97.6% | 90.7% | 107% | 108% | 99.5% | 98.4% | 94.2% | 102% | 102% | 95.4% | 103% | 96.5% | 94.5% | 102% | > 10 µM | > 10 µM | > 10 µM | > 10 µM | > 10 µM | 0 | 0 | 0 | 0 | 0
O=C(O)COc1nn(Cc2ccccc2)c2ccccc12 [bendazac] | 109% | 96.3% | 103% | 97.6% | 102% | 86.6% | 83.3% | 104% | 103% | 104% | 91.7% | 104% | 97.3% | 94.1% | 98.7% | 91.7% | 95.3% | 98.9% | 92.3% | 96.1% | 101% | 101% | 99% | 103% | 98.8% | > 10 µM | > 10 µM | > 10 µM | > 10 µM | > 10 µM | 0 | 0 | 0 | 0 | 0
COc1cc(C(=S)N2CCOCC2)ccc1O [vanitiolide] | 87.7% | 92.9% | 102% | 106% | 97.6% | 108% | 108% | 99.1% | 98.4% | 104% | 99.8% | 92.8% | 97.2% | 102% | 109% | 104% | 99.5% | 95.4% | 98.7% | 101% | 97.2% | 91.6% | 93.4% | 95.2% | 105% | > 10 µM | > 10 µM | > 10 µM | > 10 µM | > 10 µM | 0 | 0 | 0 | 0 | 0
O=C(O)c1ccc2c(c1)nc(Nc1cccc(Cl)c1)c1ccncc12 [CX-4945] | 98.7% | 95.2% | 92% | 95.6% | 97.7% | 111% | 103% | 111% | 101% | 83.2% | 106% | 109% | 92% | 102% | 77% | 102% | 101% | 101% | 88.4% | 84.8% | 101% | 98.4% | 101% | 95.1% | 86.5% | > 10 µM | > 10 µM | > 10 µM | > 10 µM | > 10 µM | 0 | 0.3 | 0.7 | 1.1 | 0.4
CC1(C)S[C@@H]2[C@H](NC(=O)[C@H](N)c3ccc(O)cc3)C(=O)N2[C@H]1C(=O)O [amoxicillin] | 85% | 78.5% | 85.4% | 97% | 97.7% | 109% | 110% | 110% | 106% | 96.5% | 99.3% | 106% | 97.3% | 98.2% | 96.4% | 102% | 103% | 96.2% | 102% | 106% | 101% | 97.8% | 98.2% | 88.2% | 102% | > 10 µM | > 10 µM | > 10 µM | > 10 µM | > 10 µM | 0 | 0 | 0 | 0 | 0
